Experimental data from US10189845B2, “4,6-substituted-pyrazolo[1,5-a]pyrazines as janus kinase inhibitors” (ARRAY BIOPHARMA INC., priority 2014, dated 2019).

Columns and labels:
JAK1 = JAK1 (Homo sapiens (Human), UniProt P23458); assay: JAK1 Inhibition Assay (Example B, Omnia kinase fluorescence peptide substrate assay); assay type: biochemical
From the text: (§1) The assays described in Examples A, B, C and D for the determination of Tyk2, JAK1, JAK2 and JAK3 kinase activity, respectively, utilized the Omnia® Kinase fluorescence peptide substrate-based technology (Invitrogen). The specific components of the assay mixture are described in Examples A, B, C and D. In these assays, Mg^2+ is chelated upon phosphorylation of the Omnia peptide by the kinase to form a bridge between the chelation-enhanced fluorophore Sox and the phosphate, resulting in an increase in fluorescence emission at 485 nm when excited at […]. The reactions were therefore read at excitation 360 nm and emission was measured at 485 nm every 50 seconds for 45 minutes using a PerkinElmer EnVision Multilabel Plate Reader.
(§2) The final buffer conditions for Tyk2, JAK1, JAK2, and JAK3 assays were as follows: 25 mM HEPES, pH 7.4, 10 mM MgCl2, 0.01% Triton X-100 and 1 mM DTT.
(§3) Two-μL aliquots of these were transferred to a fresh plate for a ten-fold intermediate dilution with assay buffer. Five-μL aliquots of the diluted compounds were then transferred to 20-μL of assay mixtures described in Examples A, B, C and D for a final concentration of DMSO of 2%. […] For each plate, percent of control (POC) values were calculated for each well according to the following equation: […]
(§4) IC50's were estimated from the POC's using a standard 4-parameter logistic model:
(§5) The IC50 is defined as the concentration of inhibitor at which the POC equals 50 for the fitted curve.
(§6) Compounds of Formula I were screened for their ability to inhibit JAK1 using the general enzyme inhibition assay method, in which the assay mixture contained 1 mM ATP, 8 μM Omnia® Y12 peptide (Catalog # IVGN KPZ3121C; Invitrogen Corporation, Carlsbad, Calif.) and 12.5 nM JAK1 in a total volume of 25 μL. JAK1 was purchased from Invitrogen Corporation, Carlsbad, Calif. (catalog # IVGN PV4775).

JAK3 = JAK3 (Homo sapiens (Human), UniProt P52333); assay: JAK3 Inhibition Assay (Example D, Omnia kinase fluorescence peptide substrate assay); assay type: biochemical
From the text: as §1, §2, §3, §4, §5
as §6, with “JAK3” for “JAK1”, “10” for “8”, “Y7” for “Y12”, “KNZ3071C,” for “KPZ3121C;”, “2” for “12.5”, “PV4080).” for “PV4775).”

JAK3, sequence (P52333 whole entry): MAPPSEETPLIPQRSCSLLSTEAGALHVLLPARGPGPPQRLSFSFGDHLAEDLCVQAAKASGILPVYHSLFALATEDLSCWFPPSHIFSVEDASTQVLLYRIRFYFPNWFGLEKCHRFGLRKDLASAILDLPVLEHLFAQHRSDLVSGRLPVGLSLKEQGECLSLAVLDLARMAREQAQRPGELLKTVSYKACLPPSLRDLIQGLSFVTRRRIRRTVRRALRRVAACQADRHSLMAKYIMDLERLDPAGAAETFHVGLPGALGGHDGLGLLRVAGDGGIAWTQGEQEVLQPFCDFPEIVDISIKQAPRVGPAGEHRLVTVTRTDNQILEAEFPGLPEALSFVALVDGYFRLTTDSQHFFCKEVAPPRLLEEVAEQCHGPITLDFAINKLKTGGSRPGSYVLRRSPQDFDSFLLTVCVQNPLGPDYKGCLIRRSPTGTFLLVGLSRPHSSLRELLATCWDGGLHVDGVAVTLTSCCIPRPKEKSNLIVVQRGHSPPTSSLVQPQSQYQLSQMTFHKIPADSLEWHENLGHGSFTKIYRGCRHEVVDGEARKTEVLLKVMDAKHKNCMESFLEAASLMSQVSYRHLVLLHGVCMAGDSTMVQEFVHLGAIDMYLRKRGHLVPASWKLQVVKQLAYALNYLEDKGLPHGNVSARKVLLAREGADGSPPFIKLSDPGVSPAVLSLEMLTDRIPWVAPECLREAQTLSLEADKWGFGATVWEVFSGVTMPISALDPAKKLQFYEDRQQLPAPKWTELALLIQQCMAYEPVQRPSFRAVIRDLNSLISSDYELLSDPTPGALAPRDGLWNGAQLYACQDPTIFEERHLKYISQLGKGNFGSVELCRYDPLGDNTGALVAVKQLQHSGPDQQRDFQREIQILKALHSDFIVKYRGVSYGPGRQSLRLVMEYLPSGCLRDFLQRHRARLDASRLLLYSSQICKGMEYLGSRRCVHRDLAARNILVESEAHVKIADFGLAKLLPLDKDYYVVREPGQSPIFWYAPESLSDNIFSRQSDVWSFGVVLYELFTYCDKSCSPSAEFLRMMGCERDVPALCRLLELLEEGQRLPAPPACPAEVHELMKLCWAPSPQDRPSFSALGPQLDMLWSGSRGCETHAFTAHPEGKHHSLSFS
JAK1, sequence (P23458 whole entry): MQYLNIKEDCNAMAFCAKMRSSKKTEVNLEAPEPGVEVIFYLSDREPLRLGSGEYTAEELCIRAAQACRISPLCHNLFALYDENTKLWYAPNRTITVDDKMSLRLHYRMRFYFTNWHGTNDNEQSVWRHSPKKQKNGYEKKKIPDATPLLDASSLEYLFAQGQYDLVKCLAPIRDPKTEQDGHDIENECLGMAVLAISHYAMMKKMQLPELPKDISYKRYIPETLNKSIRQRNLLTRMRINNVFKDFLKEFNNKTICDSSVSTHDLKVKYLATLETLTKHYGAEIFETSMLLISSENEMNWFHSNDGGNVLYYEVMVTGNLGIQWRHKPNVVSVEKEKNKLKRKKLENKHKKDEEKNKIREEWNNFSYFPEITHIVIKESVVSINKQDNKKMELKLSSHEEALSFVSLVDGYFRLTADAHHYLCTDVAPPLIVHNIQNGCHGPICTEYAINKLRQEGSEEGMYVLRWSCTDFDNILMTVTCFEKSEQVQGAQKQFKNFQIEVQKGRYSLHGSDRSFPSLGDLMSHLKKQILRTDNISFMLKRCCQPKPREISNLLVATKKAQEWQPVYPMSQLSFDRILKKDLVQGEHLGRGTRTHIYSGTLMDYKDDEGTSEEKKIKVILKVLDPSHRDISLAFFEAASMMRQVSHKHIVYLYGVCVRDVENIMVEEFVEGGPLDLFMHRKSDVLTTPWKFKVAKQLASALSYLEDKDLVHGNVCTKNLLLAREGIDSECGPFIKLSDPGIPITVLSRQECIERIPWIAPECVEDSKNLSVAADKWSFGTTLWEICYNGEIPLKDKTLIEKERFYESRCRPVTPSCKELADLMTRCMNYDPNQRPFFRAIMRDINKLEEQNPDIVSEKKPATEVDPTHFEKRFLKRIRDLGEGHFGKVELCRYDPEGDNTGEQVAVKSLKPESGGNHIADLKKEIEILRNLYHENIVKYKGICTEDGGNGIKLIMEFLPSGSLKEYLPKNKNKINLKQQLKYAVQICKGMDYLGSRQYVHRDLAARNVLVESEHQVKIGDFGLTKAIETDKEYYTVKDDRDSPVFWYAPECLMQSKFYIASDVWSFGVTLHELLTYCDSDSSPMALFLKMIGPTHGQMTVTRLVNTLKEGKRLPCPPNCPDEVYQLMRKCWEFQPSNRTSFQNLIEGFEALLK

SMILES | IC50 (JAK1) [µM] | IC50 (JAK3) [µM]
CCC(CC)n1cc(-c2nc(-c3cnn([C@@H]4COC[C@H]4O)c3)cn3nccc23)cn1 (single isomer, unassigned) [Example 159] | 0.1 to 1 | 
CCC(CC)n1cc(-c2nc(-c3cnn([C@H]4COC[C@@H]4O)c3)cn3nccc23)cn1 (single isomer, unassigned) [Example 160] | 1 to 10 | 
CCC(CC)n1cc(-c2nc(-c3cnn(C4CCN(S(C)(=O)=O)CC4)c3)cn3nccc23)cn1 [Example 32, 6-(1-(1-(methylsulfonyl)piperidin-4-yl)-1H-pyrazol-4-yl)-4-(1-(pentan-3-yl)-1H-pyrazol-4-yl)pyrazolo[1,5-a]pyrazine] | 0.01 to 0.1 | 1 to 10
CCC(CC)n1cc(-c2nc(-c3cnn(C[C@H]4CCCN4)c3)cn3nccc23)cn1 [Example 27, (R)-4-(1-(pentan-3-yl)-1H-pyrazol-4-yl)-6-(1-(pyrrolidin-2-ylmethyl)-1H-pyrazol-4-yl)pyrazolo[1,5-a]pyrazine] | 1 to 10 | 1 to 10
CCC1(n2cc(-c3nc(-c4cnn(C)c4)cn4nccc34)cn2)CN(S(=O)(=O)C(F)(F)F)C1 [Example 48, 4-(1-(3-ethyl-1-((trifluoromethyl)sulfonyl)azetidin-3-yl)-1H-pyrazol-4-yl)-6-(1-methyl-1H-pyrazol-4-yl)pyrazolo[1,5-a]pyrazine] | 0.01 to 0.1 | 1 to 10
CC[C@H]([C@@H]1CC1(F)F)n1cc(-c2nc(-c3cnn(C[C@@H](O)CO)c3)cn3nccc23)cn1 [Example 204, (R)-3-(4-(4-(1-((R)-1-((S)-2,2-difluorocyclopropyl)propyl)-1H-pyrazol-4-yl)pyrazolo[1,5-a]pyrazin-6-yl)-1H-pyrazol-1-yl)propane-1,2-diol] |  | 1 to 10
CCC(CC)n1cc(-c2nc(-c3cnn(CC4CNC(=O)O4)c3)cn3nccc23)cn1 (centres unmarked) [Example 8, 5-((4-(4-(1-(pentan-3-yl)-1H-pyrazol-4-yl)pyrazolo[1,5-a]pyrazin-6-yl)-1H-pyrazol-1-yl)methyl)oxazolidin-2-one] |  | 1 to 10

Next, values leading:

IC50 (JAK1) [µM] | IC50 (JAK3) [µM] | SMILES
0.1 to 1 | 1 to 10 | CCC(CC)n1cc(-c2nc(-c3cnn(C4CCN(C(=O)CN)CC4)c3)cn3nccc23)cn1 [Example 36, 2-amino-1-(4-(4-(4-(1-(pentan-3-yl)-1H-pyrazol-4-yl)pyrazolo[1,5-a]pyrazin-6-yl)-1H-pyrazol-1-yl)piperidin-1-yl)ethanone]
0.1 to 1 | 1 to 10 | CCC(CC)n1cc(-c2nc(-c3cnn(CCS(N)(=O)=O)c3)cn3nccc23)cn1 [Example 24, 2-(4-(4-(1-(pentan-3-yl)-1H-pyrazol-4-yl)pyrazolo[1,5-a]pyrazin-6-yl)-1H-pyrazol-1-yl)ethanesulfonamide]
 | 1 to 10 | CCC(CC)n1cc(-c2nc(-c3cnn([C@H]4C[C@H](C(=O)NCCO)C4)c3)cn3nccc23)cn1 [Example 171, (1r,3r)-N-(2-hydroxyethyl)-3-(4-(4-(1-(pentan-3-yl)-1H-pyrazol-4-yl)pyrazolo[1,5-a]pyrazin-6-yl)-1H-pyrazol-1-yl)cyclobutanecarboxamide]
 | 1 to 10 | CC(C)[C@H](C)n1cc(-c2nc(-c3cnn(C[C@@H](O)CO)c3)cn3nccc23)cn1 [Example 80, (R)-3-(4-(4-(1-((S)-3-methylbutan-2-yl)-1H-pyrazol-4-yl)pyrazolo[1,5-a]pyrazin-6-yl)-1H-pyrazol-1-yl)propane-1,2-diol]
0.1 to 1 | 1 to 10 | CCC(CC)n1cc(-c2nc(-c3cnn(C4CCN(C(=O)COC)CC4)c3)cn3nccc23)cn1 [Example 33, 2-methoxy-1-(4-(4-(4-(1-(pentan-3-yl)-1H-pyrazol-4-yl)pyrazolo[1,5-a]pyrazin-6-yl)-1H-pyrazol-1-yl)piperidin-1-yl)ethanone]
1 to 10 | 1 to 10 | CCC(CC)n1cc(-c2nc(-c3cnn(C[C@@H]4CCCN4)c3)cn3nccc23)cn1 [Example 28, (S)-4-(1-(pentan-3-yl)-1H-pyrazol-4-yl)-6-(1-(pyrrolidin-2-ylmethyl)-1H-pyrazol-4-yl)pyrazolo[1,5-a]pyrazine]
